From PubChem BioAssay (NCI)
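Cultured in 96-well plates, cells were exposed to test compound for 48 hours across five concentrations. Here, GI50 denotes the concentration required for 50% inhibition of growth. At the TGI there is no net growth.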

Key:
Test in all cases: NCI anticancer screen, dose series, 48 h
A498 renal = test system: A498 renal
BT-549 breast = test system: BT-549 breast
HT29 colon = test system: HT29 colon
NCI-H522 lung = test system: NCI-H522 lung
TK-10 renal = test system: TK-10 renal
A549 NSCLC = test system: A549 NSCLC
NCI-H23 lung = test system: NCI-H23 lung
PC-3 prostate = test system: PC-3 prostate

Structure (SMILES)	GI50 (A498 renal)	TGI (A498 renal)	GI50 (BT-549 breast)	TGI (BT-549 breast)	GI50 (HT29 colon)	TGI (HT29 colon)	GI50 (NCI-H522 lung)	TGI (NCI-H522 lung)	GI50 (TK-10 renal)	TGI (TK-10 renal)	GI50 (A549 NSCLC)	TGI (A549 NSCLC)	GI50 (NCI-H23 lung)	TGI (NCI-H23 lung)	GI50 (PC-3 prostate)	TGI (PC-3 prostate)
Clc1ccc2c(NCCCN3CCN(c4nc(N5CCOCC5)nc5ccccc45)CC3)ccnc2c1	1.57 µM	3.11 µM	1.64 µM	3.08 µM	1.62 µM	3.71 µM	1.97 µM	3.73 µM	2.04 µM	4.56 µM	–	–	–	–	–	–
O=C1CCS/C(=N/S(=O)(=O)c2ccc(N3N=C4c5ccccc5CC4C3c3cccs3)cc2)N1Cc1ccccc1 (stereo not given)	–	–	26.2 µM	75.2 µM	37 µM	> 100 µM	15.9 µM	40 µM	17.7 µM	37.6 µM	14.4 µM	35.8 µM	16.7 µM	31.8 µM	22.4 µM	55.2 µM
O=C(C(=O)c1cc(Br)ccc1O)c1cc(Br)ccc1O	–	–	–	–	14.6 µM	> 100 µM	2.94 µM	9.3 µM	3.44 µM	17.9 µM	4.16 µM	22.3 µM	3.38 µM	19.1 µM	3.13 µM	15.7 µM
CN(C)c1ccc(C2CC(C)(O)Oc3cc4c(cc32)OCO4)cc1 (stereo not given)	–	–	–	–	–	76.1 µM	–	> 100 µM	–	> 100 µM	–	> 100 µM	–	> 100 µM	–	> 100 µM
C#Cc1cccc(NC(=O)C2CCCN(C(=O)CCl)C2)c1 (stereo not given)	–	–	38.6 µM	> 82.5 µM	> 82.5 µM	> 82.5 µM	14.7 µM	32.7 µM	> 82.5 µM	> 82.5 µM	> 82.5 µM	> 82.5 µM	21.8 µM	> 82.5 µM	> 82.5 µM	> 82.5 µM
COc1ccc(/C(C)=C(\c2ccc(Cl)cc2)c2ccc(OCCN3CCCCCC3)cc2)cc1F	–	–	2.79 µM	6.74 µM	0.611 µM	> 16.7 µM	3.92 µM	9.71 µM	4.28 µM	14 µM	5.27 µM	> 16.7 µM	3.07 µM	10.4 µM	3.8 µM	15 µM
O=C(N/N=C/c1ccc(F)cc1)c1ccc(C(F)(F)F)nc1Nc1cccc(C(F)(F)F)c1	1.59 µM	4.65 µM	–	–	2.02 µM	5.23 µM	1.61 µM	4.54 µM	0.582 µM	3.86 µM	2.29 µM	6.15 µM	2.58 µM	11.9 µM	–	–
O=C(/C=C(\[O-])c1ccccc1)CCCCCCC(=O)/C=C(\[O-])c1ccccc1.O=C(/C=C(\[O-])c1ccccc1)CCCCCCC(=O)/C=C(\[O-])c1ccccc1.O=C(/C=C(\[O-])c1ccccc1)CCCCCCC(=O)/C=C(\[O-])c1ccccc1.[Nd+3].[Nd+3]	> 50 µM	> 50 µM	–	–	> 50 µM	> 50 µM	> 50 µM	> 50 µM	> 50 µM	> 50 µM	> 50 µM	> 50 µM	> 50 µM	> 50 µM	–	–
O=c1[nH]c2ccc([N+](=O)[O-])c(Cl)c2c2ccccc12	–	80.2 µM	–	21.2 µM	–	10.6 µM	–	11.7 µM	–	11.3 µM	–	> 100 µM	–	24.7 µM	–	–
O=C(Nc1ccc(C(F)(F)F)cc1[N+](=O)[O-])c1cccnc1	–	> 100 µM	–	> 100 µM	–	–	–	36.1 µM	–	> 100 µM	–	> 100 µM	–	> 100 µM	–	–
[Cl-].[Gd+3].[O-]/N=C(\c1ccccc1)c1ccccn1.[O-]/N=C(\c1ccccc1)c1ccccn1.[O-]/N=C(\c1ccccc1)c1ccccn1	> 100 µM	> 100 µM	–	–	44.9 µM	> 100 µM	40.4 µM	> 100 µM	34.9 µM	> 100 µM	55.2 µM	> 100 µM	> 100 µM	> 100 µM	–	–
COc1cc2cc3c(c(O)c2c(O)c1-c1c(OC)cc2cc4c(c(O)c2c1O)C(=O)O[C@H](C)C4)C(=O)O[C@H](C)C3	–	–	–	–	37.5 µM	> 100 µM	44.3 µM	> 100 µM	60.3 µM	> 100 µM	39.3 µM	> 100 µM	32.1 µM	> 100 µM	35.8 µM	> 100 µM
COC(=O)[C@]1(C)CCC[C@]2(C)[C@@H]1CCC13C[C@@H](C=CO1)[C@@H](C)CC32O (stereo not given in full)	–	–	> 100 µM	> 100 µM	11 µM	> 100 µM	> 100 µM	> 100 µM	–	–	33.1 µM	> 100 µM	20.3 µM	> 100 µM	38 µM	> 100 µM
COc1ccc(-c2cc(-c3ccccc3)nc(NCCNc3ccnc4cc(Cl)ccc34)n2)cc1	1.63 µM	3.16 µM	–	–	1.72 µM	3.43 µM	1.87 µM	3.8 µM	1.82 µM	3.44 µM	1.82 µM	3.55 µM	1.84 µM	3.7 µM	–	–
